We go through 69 molecules from ChEMBL document CHEMBL1144878, “N-(omega-(4-(2-methoxyphenyl)piperazin-1-yl)alkyl)carboxamides as dopamine D2 and D3 receptor ligands” (J Med Chem, 2003).

Assay [1] addresses D(2) dopamine receptor (Homo sapiens, UniProt P14416). The assay is described as follows: biochemical.
Description: Binding affinity for human dopamine receptor D2 by displacing [125I]iodosulpiride expressed in CHO cells
Assay [2] addresses T1, D(3) dopamine receptor (Homo sapiens, UniProt P35462). The assay is described as follows: biochemical.
Target sequence in this assay (P35462 whole entry): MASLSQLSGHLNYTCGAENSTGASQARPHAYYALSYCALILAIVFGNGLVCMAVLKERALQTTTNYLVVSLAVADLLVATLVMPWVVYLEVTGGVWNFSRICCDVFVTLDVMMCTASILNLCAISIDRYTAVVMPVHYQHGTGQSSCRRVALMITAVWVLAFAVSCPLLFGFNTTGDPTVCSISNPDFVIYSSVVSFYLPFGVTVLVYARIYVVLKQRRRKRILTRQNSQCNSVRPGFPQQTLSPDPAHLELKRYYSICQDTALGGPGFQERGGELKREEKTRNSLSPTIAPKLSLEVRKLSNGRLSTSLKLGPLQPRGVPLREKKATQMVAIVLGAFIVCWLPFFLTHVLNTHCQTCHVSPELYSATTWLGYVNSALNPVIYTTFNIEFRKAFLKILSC
Description: Binding affinity for human dopamine receptor D3 by displacing [125I]iodosulpiride expressed in CHO cells
Assay [3] deals with T1, D(3) dopamine receptor. The assay is described as follows: Effective concentration for Dopamine receptor D3 was determined. It is filed as functional.
Target sequence in this assay (P35462 whole entry, looked up): as the sequence (P35462 whole entry) above

Chain of D(2) dopamine receptor (P14416 whole entry): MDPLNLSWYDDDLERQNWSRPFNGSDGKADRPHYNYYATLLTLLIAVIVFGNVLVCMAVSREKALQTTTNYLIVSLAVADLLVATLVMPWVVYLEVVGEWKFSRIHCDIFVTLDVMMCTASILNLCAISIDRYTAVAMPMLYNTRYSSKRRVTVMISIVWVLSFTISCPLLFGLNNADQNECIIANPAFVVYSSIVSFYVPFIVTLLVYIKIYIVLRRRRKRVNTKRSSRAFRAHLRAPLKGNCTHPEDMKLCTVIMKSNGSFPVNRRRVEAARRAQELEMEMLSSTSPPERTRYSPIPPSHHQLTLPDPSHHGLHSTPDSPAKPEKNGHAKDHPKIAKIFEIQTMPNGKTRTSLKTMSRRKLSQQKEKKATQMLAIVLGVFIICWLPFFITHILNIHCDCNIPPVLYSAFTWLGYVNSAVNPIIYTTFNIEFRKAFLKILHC

With `COc1ccccc1N1CCN(CCCCNC(=O)/C=C/c2ccc(Cl)c(Cl)c2)CC1`, the Ki in assay [1] was found to be 23 nM; in assay [2] it was 1.31 nM.

Regarding `COc1ccccc1N1CCN(C2CC3CC(NC(=O)c4ccc5ccccc5c4)CC3C2)CC1` (configuration not stated), the inhibition constant (Ki) worked out at 178 nM in assay [1] and 37.2 nM in assay [2].

`COc1ccccc1N1CCN(CCCCNC(=O)/C=C/c2ccco2)CC1`: the Ki was found to be 11.1 nM in assay [1] and 0.6 nM in assay [2].

Regarding `COc1ccccc1N1CCN(CCCCNC(=O)/C=C/c2ccc(C#N)cc2)CC1`, the Ki worked out at 10 nM in assay [1] and 0.46 nM in assay [2].

On to `COc1ccccc1N1CCN(CCCCNC(=O)c2nccc3ccccc23)CC1`, for which the figures for the Ki in assay [1] and in assay [2] were 20.9 nM and 9.62 nM, respectively.

Consider `COc1ccccc1N1CCN(CCCNC(=O)Cc2cccc3ccccc23)CC1`, for which the Ki was determined as 44 nM in assay [1] and 108 nM in assay [2].

Regarding `COc1ccccc1N1CCN(CCCCNC(=O)/C=C/c2ccc(F)cc2)CC1`, the Ki in assay [1] was determined as 20.7 nM; in assay [2], 0.69 nM.

Molecule `COc1ccccc1N1CCN(CCCCNC(=O)c2ccc3ccccc3n2)CC1` showed a Ki in assay [2] of 6.6 nM.

Turning to `COc1ccccc1N1CCN(CCCCNC(=O)c2cc3ccccc3oc2=O)CC1`, the Ki in assay [1] was 23 nM; in assay [2] it was 1.8 nM.

For the molecule `COc1ccccc1N1CCN(CCCNC(=O)c2cccc(I)c2)CC1`, the Ki in assay [1] was determined as 235 nM; in assay [2], 300 nM.

`COc1ccccc1N1CCN(CCCCNC(=O)C2CC2c2ccccc2)CC1` (configuration not stated): the Ki stood at 81 nM in assay [1] and 15.5 nM in assay [2].

On to `COc1ccccc1N1CCN(CCCCNC(=O)/C=C/c2ccc3ccccc3c2)CC1`, for which the Ki worked out at 32 nM in assay [1] and 0.68 nM in assay [2].

As for `COc1ccccc1N1CCN(CCCCNC(=O)c2sc3ccccc3c2Cl)CC1`, the figures for the inhibition constant (Ki) in assay [1] and in assay [2] were 71.9 nM and 6.7 nM, respectively.

Consider `COc1ccccc1N1CCN(CCCCNC(=O)c2coc3ccccc3c2=O)CC1`, for which the Ki turned out to be 47 nM in assay [1] and 3.3 nM in assay [2].

Turning to `COc1ccccc1N1CCN(CCCCNC(=O)/C=C/c2ccc(Cl)cc2)CC1`, the Ki in assay [1] turned out to be 22.6 nM; in assay [2], 0.44 nM. The molecule further had an EC50 in assay [3] of 10 nM.

As to `COc1ccc2cc([C@H](C)C(=O)NCCCN3CCN(c4ccccc4OC)CC3)ccc2c1`, the Ki worked out at 94.6 nM in assay [1] and 262 nM in assay [2].

Turning to `COc1ccccc1N1CCN(CCCCNC(=O)/C=C/c2cc(I)c(OC)c(OC)c2)CC1`, the Ki stood at 38.5 nM in assay [1] and 14.9 nM in assay [2].

As for `COc1ccccc1N1CCN(CCCCNC(=O)c2cccc(I)c2)CC1`, the Ki in assay [1] was 68 nM; in assay [2] it was 9.2 nM.

As for `COc1ccccc1N1CCN(CCCCN2C(=O)c3cc4ccccc4cc3C2=O)CC1`, the Ki in assay [1] was 145 nM; in assay [2], 23.3 nM.

As for `COc1ccccc1N1CCN(CCCCNC(=O)/C=C/c2cccnc2)CC1`, the figures for the Ki in assay [1] and in assay [2] were 14.5 nM and 0.5 nM, respectively.

Turning to `COc1ccccc1N1CCN(CCCCNC(=O)/C=C/c2cccc(Cl)c2)CC1`, the Ki in assay [1] turned out to be 20 nM; in assay [2] it was 0.46 nM.

Take `COc1ccccc1N1CCN(CCCCN2C(=O)C=C(c3ccccc3)C2=O)CC1`: the Ki in assay [1] worked out at 330 nM; in assay [2], 320 nM.

In the case of `COc1ccccc1N1CCN(Cc2ccc(CNC(=O)c3ccc4ccccc4c3)cc2)CC1`, the inhibition constant (Ki) in assay [1] is 200 nM; in assay [2] it was 40 nM.

`COc1ccccc1N1CCN(CCCCNC(=O)c2ccccc2I)CC1`: the Ki in assay [1] came to 15.2 nM; in assay [2] it was 7.8 nM.

On to `COc1ccccc1N1CCN(CCCCNC(=O)c2ccc(Cl)cc2)CC1`, for which the figures for the Ki in assay [1] and in assay [2] were 19.5 nM and 0.5 nM, respectively.

Consider `COc1ccccc1N1CCN(CCCCNC(=O)/C=C/c2ccc(Cl)cc2Cl)CC1`, for which the values for the Ki in assay [1] and in assay [2] were 21 nM and 1.28 nM, respectively.

In turn, `COc1ccccc1N1CCN(CCCCNC(=O)c2ccc(-c3ccccc3)cc2)CC1` had a Ki in assay [2] of 2.85 nM.

For the molecule `COc1ccccc1N1CCN(C2CC3CC(N4CCN(c5ccccc5OC)CC4)CC3C2)CC1` (configuration not stated), the Ki came out at 630 nM in assay [1] and 700 nM in assay [2].

On to `COc1ccccc1N1CCN(CCCCNC(=O)CCc2ccccc2)CC1`, for which the Ki in assay [1] stood at 48.7 nM; in assay [2], 4.8 nM.

In the case of `COc1ccccc1N1CCN(CCCCNC(=O)/C=C/c2ccc(C(C)(C)C)cc2)CC1`, the Ki in assay [1] was 128 nM; in assay [2] it was 10.2 nM.

Regarding `COc1ccccc1N1CCN(CCCCNC(=O)/C=C/c2ccc(OCc3ccccc3)cc2)CC1`, the Ki in assay [1] amounted to 32 nM; in assay [2] it was 19.5 nM.

`COc1ccccc1N1CCN(Cc2cccc(CNC(=O)c3ccc4ccccc4c3)c2)CC1`: the results for the Ki in assay [1] and in assay [2] were 45 nM and 100 nM, respectively.

Regarding `COc1ccccc1N1CCN(CCCCNC(=O)/C=C/c2ccc(Oc3ccccc3)cc2)CC1`, the Ki in assay [1] was found to be 65.2 nM; in assay [2], 10.1 nM.

As to `COc1ccccc1N1CCN(CCCN2C(=O)c3ccccc3C2=O)CC1`, the Ki in assay [1] amounted to 300 nM; in assay [2], 560 nM.

Regarding `COc1ccccc1N1CCN(CCCCNC(=O)/C=C/c2cccs2)CC1`, the figures for the Ki in assay [1] and in assay [2] were 9.5 nM and 0.59 nM, respectively.

Regarding `COc1ccccc1N1CCN(Cc2ccccc2CNC(=O)/C=C/c2ccccc2)CC1`, the Ki in assay [1] worked out at 18 nM; in assay [2], 325 nM.

As for `COc1ccccc1N1CCN(CCCCNC(=O)/C=C/c2ccc(I)cc2)CC1`, the Ki in assay [1] was 76.4 nM; in assay [2], 0.5 nM.

`COc1ccccc1/C=C/C(=O)NCCCCN1CCN(c2ccccc2OC)CC1`: the Ki in assay [1] is 14 nM; in assay [2] it was 0.56 nM.

As to `COc1ccccc1N1CCN(CCCCNC(=O)/C=C/c2ccc3c(c2)OCO3)CC1`, the Ki in assay [1] was 10.3 nM; in assay [2] it was 1 nM.

Turning to `COc1ccccc1N1CCN(CCCCNC(=O)/C=C/c2ccc(/C=C/C(=O)NCCCCN3CCN(c4ccccc4OC)CC3)cc2)CC1`, the inhibition constant Ki in assay [1] came to 7.2 nM; in assay [2], 3.6 nM.

In the case of `COc1ccccc1N1CCN(CCCNC(=O)c2ccccc2I)CC1`, the Ki came out at 126 nM in assay [1] and 213 nM in assay [2].

As to `COc1ccccc1N1CCN(CCCCNC(=O)/C=C/c2cccc(Oc3ccccc3)c2)CC1`, the inhibition constant Ki was 114 nM in assay [1] and 19.5 nM in assay [2].

Turning to `COc1ccccc1N1CCN(CCCCNC(=O)Cc2ccc3ccccc3c2)CC1`, the Ki in assay [1] came to 35 nM; in assay [2], 32 nM.

As to `COc1ccccc1N1CCN(CCCCNC(=O)C2(c3ccc(Cl)cc3)CCCC2)CC1`, the results for the Ki in assay [1] and in assay [2] were 56 nM and 42 nM, respectively.

As for `COc1ccccc1N1CCN(CCCCNC(=O)c2ccc(-c3ccc(Cl)cc3)o2)CC1`, the Ki amounted to 200 nM in assay [1] and 6.3 nM in assay [2].

For `COc1ccccc1N1CCN(CCCCNC(=O)/C=C/c2ccc([N+](=O)[O-])cc2)CC1`, the Ki was found to be 14 nM in assay [1] and 0.74 nM in assay [2].

Consider `COc1ccccc1N1CCN(CCCCN2C(=O)c3ccccc3C2=O)CC1`, for which the inhibition constant (Ki) in assay [1] worked out at 50 nM; in assay [2] it was 38 nM.

In the case of `COc1ccc(/C=C/C(=O)NCCCCN2CCN(c3ccccc3OC)CC2)cc1`, the inhibitory constant (Ki) amounted to 12 nM in assay [1] and 0.38 nM in assay [2].

On to `COc1ccccc1N1CCN(CCCCNC(=O)/C=C/c2ccccc2I)CC1`, for which the Ki in assay [1] was 63 nM; in assay [2], 0.75 nM.

Consider `COc1ccccc1N1CCN(CCCCNC(=O)c2ccc(C(C)(C)C)cc2)CC1`, for which the results for the Ki in assay [1] and in assay [2] were 26.5 nM and 7.99 nM, respectively.

As to `COc1ccccc1N1CCN(CCCCNC(=O)c2ccc(C(=O)c3ccccc3)cc2)CC1`, the Ki was determined as 63 nM in assay [1] and 2.5 nM in assay [2].

For `COc1ccccc1N1CCN(CCCCN2C(=O)c3cccc4cccc(c34)C2=O)CC1`, the inhibitory constant (Ki) in assay [1] was 40 nM; in assay [2] it was 29 nM.

Turning to `COc1ccccc1N1CCN(CCCCNC(=O)/C=C/c2ccccc2Cl)CC1`, the inhibition constant Ki in assay [1] stood at 15 nM; in assay [2] it was 0.52 nM.

Turning to `COc1ccccc1N1CCN(CCCNC(=O)Cc2ccc3ccccc3c2)CC1`, the Ki in assay [1] was found to be 56 nM; in assay [2], 140 nM.

`COc1ccccc1N1CCN(CCCCNC(=O)/C=C/c2ccc(C(F)(F)F)cc2)CC1`: the Ki was 36.8 nM in assay [1] and 2.14 nM in assay [2].

In the case of `COc1ccccc1N1CCN(CCCCNC(=O)c2ccc(C(C)=O)cc2)CC1`, the Ki in assay [1] is 17.5 nM; in assay [2], 1 nM.

In the case of `COc1ccccc1N1CCN(CCCCNC(=O)c2cccc3c2-c2ccccc2C3=O)CC1`, the inhibition constant Ki stood at 18 nM in assay [1] and 2.96 nM in assay [2].

As to `COc1ccccc1N1CCN(CCCCNC(=O)/C=C/c2ccc(Br)cc2)CC1`, the Ki turned out to be 23.7 nM in assay [1] and 0.43 nM in assay [2].

As to `COc1ccccc1N1CCN(CCCCNC(=O)/C=C/c2cccc(I)c2)CC1`, the values for the Ki in assay [1] and in assay [2] were 161 nM and 1.2 nM, respectively.

For `COc1ccccc1N1CCN(CCCNC(=O)c2ccc(I)cc2)CC1`, the Ki came to 117 nM in assay [1] and 396 nM in assay [2].

Turning to `COc1ccccc1N1CCN(CCCCNC(=O)/C=C/c2ccc(C=O)cc2)CC1`, the Ki in assay [1] stood at 11.5 nM; in assay [2] it was 0.73 nM.

As for `COc1ccccc1N1CCN(CCCCNC(=O)/C=C/c2cccc3c2OCO3)CC1`, the Ki in assay [1] was determined as 8 nM; in assay [2], 0.55 nM.

`COc1ccccc1N1CCN(CCCCNC(=O)/C=C/c2ccsc2)CC1`: the Ki in assay [1] is 13 nM; in assay [2], 0.64 nM.

`COc1ccccc1N1CCN(CCCCNC(=O)/C=C/C=C/c2ccccc2)CC1`: the values for the Ki in assay [1] and in assay [2] were 19 nM and 1.5 nM, respectively.

With `COc1ccccc1N1CCN(Cc2ccccc2CNC(=O)c2ccc3ccccc3c2)CC1`, the inhibition constant (Ki) in assay [1] is 28.4 nM; in assay [2] it was 750 nM.

As to `COc1ccccc1N1CCN(C2CC3CC(NC4CC5CC(N6CCN(c7ccccc7OC)CC6)CC5C4)CC3C2)CC1` (configuration not stated), the figures for the inhibition constant Ki in assay [1] and in assay [2] were 103 nM and 358 nM, respectively.

On to `COc1ccccc1N1CCN(CCCCNC(=O)/C=C/c2ccccc2)CC1`, for which the results for the Ki in assay [1] and in assay [2] were 13.5 nM and 0.33 nM, respectively.

With `COc1ccccc1N1CCN(CCCCNC(=O)/C=C/c2cccc(C(F)(F)F)c2)CC1`, the inhibition constant (Ki) in assay [1] is 50.2 nM; in assay [2], 4.1 nM.

Consider `COc1ccccc1N1CCN(CCCCNC(=O)/C=C/c2ccc(-c3ccccc3)cc2)CC1`, for which the inhibition constant (Ki) in assay [1] amounted to 37 nM; in assay [2], 16 nM.
